Assays:
[1] = 101 kPa, Liquid; for viscosity: Capillary tube (Ostwald / Ubbelohde) method
[2] = xn = mol fraction of the nth substance listed; details: 101 kPa, Liquid; for viscosity: Capillary tube (Ostwald / Ubbelohde) method

CCOC=O [ethyl methanoate]
[1]
Details	mass density [kg/m3]	speed of sound [m/s]	viscosity [mPa·s]
303.15 K	907.8	1092	0.373
308.15 K	902.6	1072	0.345
313.15 K	897.1	1052	0.324

CCOC=O [ethyl methanoate] + CC(C)Cc1ccccc1
[2], x1 = 1
Details	mass density [kg/m3]	speed of sound [m/s]	viscosity [mPa·s]
303.15 K	907.8	1092	0.373
308.15 K	902.6	1072	0.345
313.15 K	897.1	1052	0.324

CCOC=O [ethyl methanoate] + CC(C)c1ccccc1
[2], x1 = 1
Details	mass density [kg/m3]	speed of sound [m/s]	viscosity [mPa·s]
303.15 K	907.8	1092	0.373
308.15 K	902.6	1072	0.345
313.15 K	897.1	1052	0.324

CCOC=O [ethyl methanoate] + CCCCc1ccccc1
[2], x1 = 1
Details	mass density [kg/m3]	speed of sound [m/s]	viscosity [mPa·s]
303.15 K	907.8	1092	0.373
308.15 K	902.6	1072	0.345
313.15 K	897.1	1052	0.324

CCOC=O [ethyl methanoate] + c1ccccc1
[2]
Details	mass density, 303.15 K [kg/m3]	mass density, 308.15 K [kg/m3]	mass density, 313.15 K [kg/m3]	speed of sound, 303.15 K [m/s]	speed of sound, 308.15 K [m/s]	speed of sound, 313.15 K [m/s]	viscosity, 303.15 K [mPa·s]	viscosity, 308.15 K [mPa·s]	viscosity, 313.15 K [mPa·s]
x1 = 0.1089	870.4	865.8	861.3	1252	1228	1208	0.529	0.499	0.468
x1 = 0.2169	873.5	868.9	864.3	1228	1208	1188	0.493	0.46	0.428
x1 = 0.3189	876.9	872.2	867.5	1208	1188	1168	0.462	0.431	0.401
x1 = 0.4239	880.8	876	871.2	1188	1168	1148	0.439	0.408	0.38
x1 = 0.5253	884.9	880.1	875.2	1172	1152	1132	0.422	0.392	0.364
x1 = 0.6233	889.1	884.2	879.2	1156	1136	1116	0.41	0.38	0.354
x1 = 0.7211	893.6	888.6	883.4	1140	1120	1100	0.399	0.37	0.348
x1 = 0.8148	898.1	893	887.7	1124	1104	1084	0.389	0.364	0.338
x1 = 0.9088	903	897.8	892.3	1108	1088	1068	0.379	0.355	0.329
x1 = 1	907.8	902.6	897.1	1092	1072	1052	0.373	0.345	0.324

CC(C)c1ccccc1 [isopropylbenzene]
[1]
Details	mass density [kg/m3]	speed of sound [m/s]	viscosity [mPa·s]
303.15 K	852.7	1280	0.69
308.15 K	849	1264	0.651
313.15 K	845.4	1248	0.611

CC(C)c1ccccc1 [isopropylbenzene] + CCOC=O
[2]
Details	mass density, 303.15 K [kg/m3]	mass density, 308.15 K [kg/m3]	mass density, 313.15 K [kg/m3]	speed of sound, 303.15 K [m/s]	speed of sound, 308.15 K [m/s]	speed of sound, 313.15 K [m/s]	viscosity, 303.15 K [mPa·s]	viscosity, 308.15 K [mPa·s]	viscosity, 313.15 K [mPa·s]
x2 = 0	852.7	849	845.4	1280	1264	1248	0.69	0.651	0.611
x2 = 0.1603	857	853.2	849.4	1252	1240	1228	0.63	0.585	0.544
x2 = 0.3007	861.7	857.7	853.7	1228	1216	1200	0.577	0.537	0.499
x2 = 0.4234	866.5	862.4	858.3	1204	1192	1176	0.534	0.497	0.46
x2 = 0.5352	871.9	867.7	863.3	1180	1168	1152	0.5	0.463	0.431
x2 = 0.633	877.4	872.9	868.4	1160	1148	1132	0.468	0.437	0.409
x2 = 0.7203	882.8	878.2	873.7	1144	1132	1116	0.444	0.414	0.386
x2 = 0.801	888.9	884.2	879.3	1128	1116	1100	0.424	0.394	0.367
x2 = 0.8724	894.8	890	884.9	1116	1100	1084	0.407	0.382	0.359
x2 = 0.9399	901.3	896.4	891.1	1104	1088	1068	0.39	0.362	0.34

Source: the NIST ThermoML archive (doi:10.1021/je900689m)
